Source: ChEMBL document CHEMBL5291721, “A preclinical secondary pharmacology resource illuminates target-adverse drug reaction associations of marketed drugs” (Nat Commun, 2023)

Target: T1, Alpha-1A adrenergic receptor (Homo sapiens, UniProt P35348)
T1 sequence (P35348 whole entry): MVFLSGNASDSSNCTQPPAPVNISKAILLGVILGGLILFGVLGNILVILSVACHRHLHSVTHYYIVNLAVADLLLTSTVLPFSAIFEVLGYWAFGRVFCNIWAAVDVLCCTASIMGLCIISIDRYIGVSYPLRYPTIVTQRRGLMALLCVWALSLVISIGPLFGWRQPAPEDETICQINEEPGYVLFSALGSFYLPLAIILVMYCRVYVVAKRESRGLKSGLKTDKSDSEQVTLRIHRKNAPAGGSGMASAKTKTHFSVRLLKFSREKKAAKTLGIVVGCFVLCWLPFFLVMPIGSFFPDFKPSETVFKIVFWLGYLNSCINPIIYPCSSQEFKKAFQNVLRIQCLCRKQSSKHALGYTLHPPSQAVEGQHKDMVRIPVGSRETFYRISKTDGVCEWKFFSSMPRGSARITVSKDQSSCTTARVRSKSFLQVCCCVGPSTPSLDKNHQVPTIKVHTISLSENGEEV
Assay type: functional, cell-based
Note: assay procedure not described here.

| Structure (SMILES) | AC50 [µM] |
| --- | --- |
| CN1CCC[C@@H]1Cc1c[nH]c2ccc(CCS(=O)(=O)c3ccccc3)cc12 | > 30 |
| COc1nccnc1NS(=O)(=O)c1ccc(N)cc1 | > 30 |
| O=C(Nc1cccc2c(=O)cc(-c3nnn[nH]3)oc12)c1ccc(OCCCCc2ccccc2)cc1 | > 30 |
| NC(=O)c1nc(F)c[nH]c1=O | > 30 |
| CN(C)CCCN1C(=O)c2cc([N+](=O)[O-])ccc2Oc2ccccc21 | > 30 |
| O=S(=O)(O)CCS [2-MERCAPTOETHANESULFONIC ACID] | > 30 |
| O=C(O)COc1nn(Cc2ccccc2)c2ccccc12 [BENDAZAC] | > 30 |
| Cc1ccc([C@@H]2O[C@H](CO)[C@@H](O)[C@H](O)[C@H]2O)cc1Cc1ccc(-c2ccc(F)cc2)s1 [CANAGLIFLOZIN ANHYDROUS] | > 30 |
| O=C(O)CCCc1ccc(N(CCCl)CCCl)cc1 [CHLORAMBUCIL] | > 30 |
| CN(C)CCN(Cc1ccc(Cl)cc1)c1ccccn1 [CHLOROPYRAMINE] | > 30 |
| O=C(O)c1cc(=O)c2ccccc2o1 [CHROMOCARB] | > 30 |
| CN(CC(=O)O)C(=N)N [CREATINE] | > 30 |
| N[C@@H](CSSC[C@H](N)C(=O)O)C(=O)O [CYSTINE] | > 30 |
| Cn1c(=O)c2c(ncn2CC(O)CO)n(C)c1=O (configuration not stated) [DYPHYLLINE] | > 30 |
| C[C@]12CC[C@@H]3c4ccc(O)cc4CC[C@H]3[C@@H]1CC[C@@H]2OC(=O)CCC1CCCC1 [ESTRADIOL CYPIONATE] | > 30 |
| CC1(C)O[C@@H]2C[C@H]3[C@@H]4CCC5=CC(=O)CC[C@]5(C)[C@@]4(F)[C@@H](O)C[C@]3(C)[C@]2(C(=O)CCl)O1 [HALCINONIDE] | > 30 |
| C[C@]12CCC(=O)C=C1CC[C@@H]1[C@@H]2[C@@H](O)C[C@@]2(C)[C@H]1CC[C@]2(O)C(=O)COC(=O)CCC(=O)O [HYDROCORTISONE HEMISUCCINATE ANHYDROUS] | > 30 |
